Each compound was assayed against S-adenosylhomocysteine hydrolase (Homo sapiens) (assay: Inhibition of S-adenosylhomocysteine hydrolase (unknown origin)).
An IC50 of 2.7 nM was found for `Nc1ncc(Br)c2c1ncn2[C@@H]1C=C(CO)[C@@H](O)[C@H]1O` in this work. An IC50 of 10000 nM was found for `Nc1ncc(Br)c2c1ncn2C1=C[C@@H](CO)[C@H](O)[C@@H]1O` in this work. An IC50 of 13 nM was found for `Nc1ncc(Br)c2c1ncn2C1=C[C@H](CO)[C@@H](O)[C@H]1O` in this work.

Source: BindingDB's records for doi:10.1016/j.bmcl.2015.12.061 (Auburn University, 2016)
